Experimental data reported in patent US10961234B2, “Oxazole derivatives for use in the treatment of cancer” (LIFEARC, priority 2016, dated 2021).
pEC50, pIC50: −log10 of the molar value.

Legend:
WT full length PAICS = biological target: T1, WT full length PAICS (Homo sapiens, UniProt P22234); experiment: Biochemical assay to measure PAICS activity (Transcreener ADP2 FI, SAICAR synthetase reaction); conditions: PAICS 2.5 nM, 30 mins pre-incubation, ADP detection by fluorescence intensity
T1 construct: 5 μl WT full length PAICS (final assay concentration, fac, 2.5 nM) in basic buffer
T1 sequence (P22234 1-425): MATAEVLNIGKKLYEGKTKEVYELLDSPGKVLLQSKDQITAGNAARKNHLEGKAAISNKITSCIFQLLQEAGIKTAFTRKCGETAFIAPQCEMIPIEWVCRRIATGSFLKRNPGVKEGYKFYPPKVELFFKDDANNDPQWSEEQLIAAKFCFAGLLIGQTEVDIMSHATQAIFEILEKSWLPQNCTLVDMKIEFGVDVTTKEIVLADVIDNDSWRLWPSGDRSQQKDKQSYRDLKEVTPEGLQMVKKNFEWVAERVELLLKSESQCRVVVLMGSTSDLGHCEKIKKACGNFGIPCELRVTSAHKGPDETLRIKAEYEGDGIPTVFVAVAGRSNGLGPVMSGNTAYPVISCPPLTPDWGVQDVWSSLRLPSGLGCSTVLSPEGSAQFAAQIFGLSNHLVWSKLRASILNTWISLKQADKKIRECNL
Description: The biochemical assay was used to measure PAICS SAICAR synthetase-mediated conversion of CAIR, aspartic acid and ATP to SAICAR, ADP and inorganic phosphate (PI), post-AIR/CAIR equilibration (see FIG. 3). This was achieved by detecting the ADP generated during the reaction, using Bellbrook Lab's Transcreener ADP^2 FI assay. An increase in the fluorescence intensity is directly proportional to the amount of PAICS activity.
The Transcreener ADP^2 FI assay is a homogeneous competitive displacement fluorescence intensity assay which uses direct immunodetection of ADP. Displacement of the tracer by ADP causes an increase in the fluorescence at excitation 590 nm and emission 617 nm (FIG. 3).
5 μl WT full length PAICS (final assay concentration, fac, 2.5 nM) in basic buffer, added to black, non-binding, 384-well plates (Corning #3575), columns 1 to 22.5 μl basic buffer was added to columns 23+24 (negative control). PAICS stock at 31.9 μM from the PI's lab (Steve Firestine). Basic buffer contained 50 mM Tris-HCl pH8 and 0.5 mM EDTA, fac.
1 μl compound in 100% DMSO added per well, or 1 μl 100% DMSO to positive controls (columns 1+2) and negative controls (columns 23+24). Final assay top concentration of compound either 1 mM or 30 μM, serially diluted with half-log dilutions across the plate in duplicate (one 10-point concentration response curve across wells 3 to 12, another across 13 to 22). Compounds pre-incubated with PAICS enzyme for 30 mins at RT.
2 μl CAIR added (fac 10 μM) in basic buffer plus 25 mM MgCl2 and 50 mM KHCO3 fac to all wells. CAIR stock 50 mM from Steve Firestine's lab. 1 hr RT incubation for AIR-CAIR equilibration. NB: ˜50% CAIR is decarboxylated during equilibration therefore 5 μM remains for the synthetase reaction.
2 μl ATP/aspartic acid added (fac 30 μM/180 μM) in reaction buffer to all wells. 30 mins RT incubation for appropriate level of ATP turnover. Reaction buffer contained basic buffer plus 10 mM DTT, 0.01% BSA and 0.01% Brij 35, fac.
10 μl ADP detection reagent added to all wells (as per instructions, Transcreener ADP^2 FI kit, BellBrook Labs #3013-10K). Incubation for 1 h at RT to allow antibody equilibration. Fluorescence intensity determined using a Tecan Safire2 (excitation at 590 nm, emission at 617 nm).

[1] = system: LM2 and MDA-MB-231 breast cancer cell lines; experiment: PAICS 2D cell proliferation assay; assay type: cell-based; conditions: Homo sapiens; 72 hours incubation; cell line (LM2 or MDA-MB-231) not given
Method: Frozen cryovial stocks of LM2 and MDA-MB-231 breast cancer cell lines were thawed and cultured in 4.5 g/L glucose DMEM (31966-047, Invitrogen) supplemented with 10% Fetal Bovine Serum (10500-064, Invitrogen) until confluent in a T175 flask. Cells were incubated at 37° C. with 5% CO2 in a humidified incubator.
Cells were collected from T175 flasks by washing with PBS (10010-056, Invitrogen) and dissociated using Accutase (A6964, Sigma Aldrich). This was followed by centrifuging (1200 rpm, 5 min) and resuspending the cells in 10 ml of media containing 1% penicillin/streptomycin (15140-122, Invitrogen). Cells were counted by trypan blue exclusion method using an automated cell counter (Cellometer) and diluted to a concentration of 40,000/ml. 1000 cells were then seeded into 384-well white-walled plates (Corning, 3707) in a volume of 25 μl. Plates were incubated overnight at 37° C. with 5% CO2.
After 24 hours, PAICS compounds were added onto the assay plates using an HP D300 Digital Dispenser (Hewlett Packard). 10 mM stocks were used and dispensed as a 10 point concentration response curve (CRC) ½ log dilution series with a final top concentration of 100 μM. Controls were added onto each plate: positive controls included Staurosporine CRC (100 μM stock dispensed as a 10 point CRC ½ log dilution series with a final top concentration of 1 μM) and PAICS compound MRT00211919 (10 mM stock dispensed as a 10 point CRC ½ log dilution series with a final top concentration of 100 μM); a high control of Staurosporine (0.1 μM (LM2), 0.316 μM (MDA-MB-231) FAC) and a low control of media containing 1% DMSO. A final concentration of 1% DMSO was then added across the plates for normalisation. Following compound addition, assay plates were incubated for 72 hours at 37° C. with 5% CO2.
After 72 h incubation, dead and viable cells were measured in each assay plate. Cytotoxicity was assessed through fluorescent DNA staining using the CellTox™ Green Cytotoxicity Assay kit (G8743, Promega) following the manufacturer's multiplexing protocol. Impaired cell membrane integrity results in the access of dye to stain DNA allowing quantification of dead cells. Cell viability was determined following ATP quantification using the CellTiter-Glo® Luminescent Cell Viability Assay kit (G7572, Promega) following the manufacturer's protocol. ATP released from lysed cells allowed for the generation of a signal proportional to the number of cells present in the well. All endpoint reads were performed using the PheraSTAR Plus (BMG Labtech). Data is expressed as % viable cells and % dead cells against controls (mean±SEM of duplicate curves).

| Structure (SMILES) | pIC50 (WT full length PAICS) | pEC50 [1] |
| --- | --- | --- |
| Nc1nc(C(=O)Nc2cc(-c3ccc(CN4CCNCC4)cc3)ccc2Cl)co1 [Example 38, 2-Amino-N-[4-chloro-4′-(piperazin-1-ylmethyl)biphenyl-3-yl]-1,3-oxazole-4-carboxamide] | 7.60 to 8.00 | 6.30 to 6.60 |
| Nc1nc(C(=O)Nc2cc(-c3ccc(N4CCNCC4)cc3)ccc2Cl)co1 [Example 39, 2-Amino-N-[4-chloro-4′-(piperazin-1-yl)biphenyl-3-yl]-1,3-oxazole-4-carboxamide] | < 7.00 | 6.30 to 6.60 |
| Nc1nc(C(=O)Nc2cc(-c3cnn(C4CCNCC4)c3)ccc2Cl)co1 [Example 40] | 7.00 to 7.60 | 6.30 to 6.60 |
| Nc1nc(C(=O)Nc2cc(-c3cnn(C4CCNC4)c3)ccc2Cl)co1 (centres unmarked) [Example 41, 2-Amino-N-{2-chloro-5-[1-(pyrrolidin-3-yl)-1H-pyrazol-4-yl]phenyl}-1,3-oxazole-4-carboxamide] | 7.00 to 7.60 | 6.60 to 7.00 |
| Nc1nc(C(=O)Nc2cc(-c3cnn(C4CCCNC4)c3)ccc2Cl)co1 (centres unmarked) [Example 42, 2-Amino-N-{2-chloro-5-[1-(piperidin-3-yl)-1H-pyrazol-4-yl]phenyl}-1,3-oxazole-4-carboxamide] | < 7.00 | 6.60 to 7.00 |
| CN(C)CCCn1cc(-c2ccc(Cl)c(NC(=O)c3coc(N)n3)c2)cn1 [Example 43, 2-Amino-N-(2-chloro-5-{1-[3-(dimethylamino)propyl]-1H-pyrazol-4-yl}phenyl)-1,3-oxazole-4-carboxamide] | 7.00 to 7.60 | 6.60 to 7.00 |
| CN1CCC(n2cc(-c3ccc(Cl)c(NC(=O)c4coc(N)n4)c3)cn2)CC1 [Example 44, 2-Amino-N-{2-chloro-5-[1-(1-methylpiperidin-4-yl)-1H-pyrazol-4-yl]phenyl}-1,3-oxazole-4-carboxamide] | < 7.00 | 6.60 to 7.00 |
| CN1CC(n2cc(-c3ccc(Cl)c(NC(=O)c4coc(N)n4)c3)cn2)C1 [Example 45, 2-Amino-N-{2-chloro-5-[1-(1-methylazetidin-3-yl)-1H-pyrazol-4-yl]phenyl}-1,3-oxazole-4-carboxamide] | < 7.00 | 6.60 to 7.00 |
| Nc1nc(C(=O)Nc2cc(-c3cnn(CCCNC4CC4)c3)ccc2Cl)co1 [Example 48, 2-Amino-N-(2-chloro-5-(1-(3-(cyclopropylamino)propyl)-1H-pyrazol-4-yl)phenyl)oxazole-4-carboxamide] | 7.60 to 8.00 | 6.60 to 7.00 |
| CNCCCn1cc(-c2ccc(Cl)c(NC(=O)c3coc(N)n3)c2)cn1 [Example 49, 2-Amino-N-(2-chloro-5-(1-(3-(methylamino)propyl)-1H-pyrazol-4-yl)phenyl)oxazole-4-carboxamide] | > 8.00 | > 7.00 |
| CNCCn1cc(-c2ccc(Cl)c(NC(=O)c3coc(N)n3)c2)cn1 [Example 50, 2-Amino-N-(2-chloro-5-(1-(2-(methylamino)ethyl)-1H-pyrazol-4-yl)phenyl)oxazole-4-carboxamide] | 7.60 to 8.00 | 6.60 to 7.00 |
| Nc1nc(C(=O)Nc2cc(-c3cnn(CCCN4CCNCC4)c3)ccc2Cl)co1 [Example 51, 2-Amino-N-(2-chloro-5-(1-(3-(piperazin-1-yl)propyl)-1H-pyrazol-4-yl)phenyl)oxazole-4-carboxamide] | > 8.00 | 6.60 to 7.00 |

The remaining lines, values ahead:

| pIC50 (WT full length PAICS) | pEC50 [1] | Structure (SMILES) |
| --- | --- | --- |
| > 8.00 | > 7.00 | CNC1CCC(n2cc(-c3ccc(Cl)c(NC(=O)c4coc(N)n4)c3)cn2)CC1 (mixture of isomers) [Example 80, 2-Amino-N-(2-chloro-5-{1-[4-(methylamino)cyclohexyl]-1H-pyrazol-4-yl}phenyl)-1,3-oxazole-4-carboxamide] |
| 7.60 to 8.00 | 6.60 to 7.00 | CN1CCN(CCCn2cc(-c3ccc(Cl)c(NC(=O)c4coc(N)n4)c3)cn2)CC1 [Example 52, 2-Amino-N-(2-chloro-5-(1-(3-(4-methylpiperazin-1-yl)propyl)-1H-pyrazol-4-yl)phenyl)oxazole-4-carboxamide] |
| – | > 7.00 | CN(C)CCCc1ncc(-c2ccc(Cl)c(NC(=O)c3coc(N)n3)c2)s1 [Example 85, 2-Amino-N-(2-chloro-5-{2-[3-(dimethylamino)propyl]-1,3-thiazol-5-yl}phenyl)-1,3-oxazole-4-carboxamide] |
| – | > 7.00 | CNC1CCCN(Cc2csc(-c3ccc(Cl)c(NC(=O)c4coc(N)n4)c3)n2)C1 (centres unmarked) [Example 96, 2-Amino-N-[2-chloro-5-(4-{[3-(methylamino)piperidin-1-yl]methyl}-1,3-thiazol-2-yl)phenyl]-1,3-oxazole-4-carboxamide] |
| – | 6.60 to 7.00 | CN(C)C1CCN(Cc2csc(-c3ccc(Cl)c(NC(=O)c4coc(N)n4)c3)n2)CC1 [Example 97, 2-Amino-N-[2-chloro-5-(4-{[4-(dimethylamino)piperidin-1-yl]methyl}-1,3-thiazol-2-yl)phenyl]-1,3-oxazole-4-carboxamide] |
| – | > 7.00 | CCN(CC)CCCOc1ncc(-c2ccc(Cl)c(NC(=O)c3coc(N)n3)c2)s1 [Example 98, 2-Amino-N-(2-chloro-5-{2-[3-(diethylamino)propoxy]-1,3-thiazol-5-yl}phenyl)-1,3-oxazole-4-carboxamide] |
| – | 6.60 to 7.00 | CSc1ccc(-c2cnc(OCCCN(C)C)s2)cc1NC(=O)c1coc(N)n1 [Example 99, 2-Amino-N-[5-{2-[3-(dimethylamino)propoxy]-1,3-thiazol-5-yl}-2-(methylsulfanyl)phenyl]-1,3-oxazole-4-carboxamide] |
| – | > 7.00 | CSc1ccc(-c2nc(CN3CCNCC3)cs2)cc1NC(=O)c1coc(N)n1 [Example 100, 2-Amino-N-{2-(methylsulfanyl)-5-[4-(piperazin-1-ylmethyl)-1,3-thiazol-2-yl]phenyl}-1,3-oxazole-4-carboxamide] |
| – | 6.60 to 7.00 | CN1CCN(c2ncc(-c3ccc(Cl)c(NC(=O)c4coc(N)n4)c3)s2)CC1 [Example 101, 2-Amino-N-{2-chloro-5-[2-(4-methylpiperazin-1-yl)-1,3-thiazol-5-yl]phenyl}-1,3-oxazole-4-carboxamide] |
